Results published in patent US20130029928A1 (priority 2010, published 2013).
Values joined by “and” are separate entries in the source; they are usually repeats but may differ in a detail not shown here. Equal values may be shown once. “Also recorded” adds a separate entry of the source. Read-outs that look alike come from different tables or passages of the source.

Columns and labels:
OV-90 = experiment: ATP depletion cytotoxicity assay 48 hr; assay type: cell-based, human
Protocol: (§1) Assay replicates were independent in time and up to 4 replicates were performed per cell line.
(§2) Cells were plated at the optimal plating density for that cell line in 96-well plates and allowed to attach overnight. The next day, the medium was removed and replaced with fresh medium containing the dose ranges of test items. […] There were 3 replicates for each test item concentration.
(§3) Following exposure to Test Items, the CellTitre-Glo Luminescent Cell Viability Assay to measure ATP content was performed according to the manufacturer's detailed instructions (Promega Corporation, Technical Bulletin No. 288, and Cell notes, Issue 10, 2004).
(§4) Cells were plated at the optimal plating density for that cell line in 96-well plates and allowed to attach overnight. The next day, cells were pre-treated with the inhibitors UO126 or LY294002 (see Tables 18 & 20) for 2 hrs, the medium was removed and replaced with fresh medium containing the appropriate dose of the test item. […] Cells were exposed to these compounds in Roswell Park Memorial Institute (RPMI) medium containing 10% Foetal Calf Serum (FCS) and 2 mM Glutamine at 37° C. and 5% CO2 for 48 hours. There were 3 replicates for each test item concentration.
(§5) Following exposure to Test Items, the CellTitre-Glo Luminescent Cell Viability Assay to measure ATP content will be performed according to the manufacturer's detailed instructions (Promega Corporation, Technical Bulletin No. 288, and Cell notes, Issue 10, 2004).

HT1080 = experiment: ATP depletion cytotoxicity assay 48 hr; assay type: cell-based; details: Homo sapiens, HT-1080, Study CXR0798, read-out: IC50 1
Protocol: (§6) The SRB assay was performed according to the method specified by the NIC/NIH. […] Assay replicates were independent in time and up to 4 replicates were performed per cell line.

HepG2 [1] = experiment: SRB cytotoxicity assay 48 hr; assay type: cell-based, human; details: read-out: IC50 Values After 48 Hrs Exposure
Protocol: as §6

Plasma protein binding = assay type: in vitro ADME
PANC-1 cells = experiment: Western blot of PCNA and cleaved PARP in PANC-1 cells; assay type: cell-based, human; details: 450 μM, 24 hrs
Protocol: PCNA is a marker for cell proliferation and cleaved PARP is representative of caspase cleavage and apoptosis. […] Western blot analysis was performed with increasing amounts of protein, ranging between 2 and 20 μg (lanes 1-8). Positive control protein was derived from MCF7 cells (PCNA blot, lane 9) or from HeLa cells treated with staurosporine for 3 hours (Cleaved PARP blot, lanes 9, 10). Levels of total β-Actin are shown as a control for protein loading.
Cells respond to the accumulation of unfolded proteins in the ER by a rescue process called the unfolded protein response (UPR). However, if the unfolded protein accumulation is persistent and the stress cannot be relieved, UPR signalling switches from prosurvival to proapoptotic (Kim (2006)), (Szegezdi (2006)), usually involving processing of caspases (Chang (2006)). Consistent with this hypothesis, CXR1002-treated PANC-1 cells show reduced proliferation and cleavage of the caspase substrate poly-ADP ribose polymerase (PARP) (FIG. 2) in PANC-1 cells.

[2] = system: patients with advanced cancer; experiment: Phase I study CXR1002-001: safety and toxicity; assay type: in vivo, human; details: at the doses examined to date
From the text: These patients then underwent repeat dosing schedule with the same dose of CXR1002. […] Dose limiting toxicity (DLT) will be based on the toxicity assessments over the first 3-week period of the repeat dosing schedule. PK samples (single blood sample) were taken on the following basis: • Every 6 weeks during the repeat dosing phase • If dosing is interrupted or stopped, samples will be taken at intervals according to patient convenience • PK sampling for safety evaluation may take place at any time, as clinically indicated
In all dose cohorts subsequent to the initial dose cohort, all patients will be treated with weekly administration of study drug from the start of dosing. Dose escalation was performed after all patients at the preceding dose level had completed a 3-week repeat dosing period.

MDA-MB-157 [3] = experiment: SRB cytotoxicity assay 48 hr; assay type: cell-based, human; details: read-out: IC50 Values After 48 Hrs Exposure
Protocol: as §6

Water solubility = assay type: physicochemical
HepG2 [4] = experiment: ATP depletion cytotoxicity assay 48 hr; assay type: cell-based, human
Protocol: as §1, §2, §3, §4, §5

[5] = system: patients with advanced cancer; experiment: Phase I study CXR1002-001: plasma HDL-C and LDL-C; assay type: in vivo, human; details: 6 weeks of treatment, % baseline
From the text: Individual patient raw data was captured and represented in graphs as % change from baseline (screening). […] Data represents either mean±SEM values or median, range+individual data points.

U2OS = experiment: ATP depletion cytotoxicity assay 48 hr; assay type: cell-based; details: Homo sapiens, Study CXR0798, read-out: IC50 1
Protocol: as §6

SK-OV3 = experiment: ATP depletion cytotoxicity assay 48 hr; assay type: cell-based, human
Protocol: as §1, §2, §3, §4, §5

PC3 = experiment: ATP depletion cytotoxicity assay 48 hr; assay type: cell-based, human
Protocol: as §1, §2, §3, §4, §5

MDA-MB-157 [6] = experiment: ATP depletion cytotoxicity assay 48 hr; assay type: cell-based, human
Protocol: as §1, §2, §3, §4, §5

TOV-21G = experiment: ATP depletion cytotoxicity assay 48 hr; assay type: cell-based, human
Protocol: as §1, §2, §3, §4, §5

MCF-7 = experiment: SRB cytotoxicity assay 48 hr; assay type: cell-based, human; details: read-out: IC50 Values After 48 Hrs Exposure
Protocol: as §6

OVCAR-3 = experiment: ATP depletion cytotoxicity assay 48 hr; assay type: cell-based; details: Homo sapiens
Protocol: as §1, §2, §3
Cells were plated at the optimal plating density for that cell line in 96-well plates and allowed to attach overnight. The next day, cells were pre-treated with the inhibitors UO126 or LY294002 (see Tables 18 & 20) for 2 hrs, the medium was removed and replaced with fresh medium containing the appropriate dose of the test item. […] Cells were exposed to these compounds in Roswell Park Memorial Institute (RPMI) medium containing 10% Foetal Calf Serum (FCS) and 2 mM Glutamine at 37° C. and 5% CO2 for 48 hours. There were 3 replicates for each test item concentration. […]

[7] = system: panel of tumour cell lines; experiment: ATP cytotoxicity assay on the panel of tumour cell lines (CXR1002 alone; test items alone vs combined with CXR1002); details: Homo sapiens, read-out: cytotoxicity IC50 to tumour cells (lowest of range)
Protocol: as §6
Cells were plated at the optimal plating density for that cell line in 96-well plates and allowed to attach overnight. The next day, the medium was removed and replaced with fresh medium containing the dose ranges of test items. The cells were exposed to 5-FU, cisplatin, docetaxel, doxorubicin, geldanamycin, gemcitabine, rapamycin or roscovitine in Roswell Park Memorial Institute (RPMI) medium containing 10% Foetal Calf Serum (FCS) and 2 mM Glutamine at 37° C. and 5% CO2 for 48 hours. […] There were 3 replicates for each test item concentration.
as §3

[8] = system: pregnenolone X receptor (PXR); details: species-specific basis; Ren (2009); cited from earlier work
HPAFII = experiment: ATP depletion cytotoxicity assay 48 hr; assay type: cell-based, human
Protocol: as §3
Cells were plated at the optimal plating density for that cell line in 96-well plates and allowed to attach overnight. […] Cells were exposed to these compounds in Roswell Park Memorial Institute (RPMI) medium containing 10% Foetal Calf Serum (FCS) and 2 mM Glutamine at 37° C. and 5% CO2 for 48 hours. There were 3 replicates for each test item concentration.
as §5

[9] = ATP depletion, 48 hrs, read-out: IC50 1-4 (independent replicates)
[10] = read-out: IC50 1-4 (independent replicates)

## O=C(O)C(F)(F)C(F)(F)C(F)(F)C(F)(F)C(F)(F)C(F)(F)C(F)(F)F [CXR1002]
OV-90; [9]
  IC50: 670 µM
OV-90; Homo sapiens, OV-90, 48 h, ATP depletion, 48 hrs, read-out: IC50 1-4 (independent replicates)
  IC50: 650 µM
OV-90; Homo sapiens, OV-90, 48 h, ATP depletion, 48 hrs, read-out: IC50 Mean
  IC50: 657 µM
OV-90; Homo sapiens, OV-90, 48 h, Example 7, 48 hour, CXR1002 0-1 mM, U0126 fixed 10 μM where combined, read-out: IC50
  IC50: 714 µM
HT1080
  IC50: > 1000 µM
HepG2 [1]
  IC50: 162 ± 31.8 µM
Plasma protein binding
  plasma protein binding: highly plasma protein bound
PANC-1 cells
  PCNA protein level (cell proliferation marker): reduced PCNA levels
  cleaved PARP protein level (apoptosis marker): increased cleaved PARP
[2]
  clinical toxicity: relatively non-toxic
MDA-MB-157 [3]
  IC50: 463 ± 168 µM
Water solubility
  solubility in water: freely soluble in water; also recorded: highly water soluble
HepG2 [4]; Homo sapiens, HepG2, 48 h, read-out: IC50 1-4 (independent replicates)
  IC50: 240 µM
HepG2 [4]; Homo sapiens, HepG2, 48 h, read-out: IC50 Mean
  IC50: 273 µM
HepG2 [4]; [10]
  IC50: 230 µM and 350 µM
[5]
  effect on plasma HDL-C: remains unchanged
  effect on plasma LDL-C: lowering effect
U2OS
  IC50: > 1000 µM
SK-OV3; Homo sapiens, SK-OV-3, 48 h, read-out: IC50 1-4 (independent replicates)
  IC50: 550 µM
SK-OV3; Homo sapiens, SK-OV-3, 48 h, read-out: IC50 Mean
  IC50: 535 µM
SK-OV3; [10]
  IC50: 520 µM
PC3; Homo sapiens, PC-3, 48 h, read-out: IC50 1-4 (independent replicates)
  IC50: 650 µM
PC3; Homo sapiens, PC-3, 48 h, read-out: IC50 Mean
  IC50: 642 µM
PC3; [10]
  IC50: 625 µM
MDA-MB-157 [6]; Homo sapiens, MDA-MB-157, 48 h, read-out: IC50 1-4 (independent replicates), ATP depletion, 48 hrs, MDA-MB-157
  IC50: 670 µM
MDA-MB-157 [6]; Homo sapiens, MDA-MB-157, 48 h, read-out: IC50 Mean, ATP depletion, 48 hrs, MDA-MB-157
  IC50: 665 µM
MDA-MB-157 [6]; read-out: IC50 1-4 (independent replicates), ATP depletion, 48 hrs, MDA-MB-157
  IC50: 675 µM and 650 µM
TOV-21G; [9]
  IC50: 600 µM and 700 µM
TOV-21G; Homo sapiens, TOV21G, 48 h, ATP depletion, 48 hrs, read-out: IC50 1-4 (independent replicates)
  IC50: 610 µM
TOV-21G; Homo sapiens, TOV21G, 48 h, ATP depletion, 48 hrs, read-out: IC50 Mean
  IC50: 637 µM
TOV-21G; Homo sapiens, TOV21G, 48 h, Example 7, 48 hour, CXR1002 0-1 mM, U0126 fixed 10 μM where combined, read-out: IC50
  IC50: 615 µM
MCF-7
  IC50: 276 ± 33.2 µM
OVCAR-3; [10]
  IC50: 650 µM
OVCAR-3; read-out: IC50 Mean
  IC50: 650 µM
[7]
  IC50: ≥ 273 µM
[8]
  activation of PXR: are activated
HPAFII; Homo sapiens, HPAF-II, 48 h, read-out: IC50 1-4 (independent replicates), ATP depletion, 48 hrs, HPAFII
  IC50: > 1000 µM
HPAFII; Homo sapiens, HPAF-II, 48 h, read-out: IC50 Mean, ATP depletion, 48 hrs, HPAFII
  IC50: > 1000 µM
HPAFII; read-out: IC50 1-4 (independent replicates), ATP depletion, 48 hrs, HPAFII
  IC50: > 1000 µM and 750 µM
